Laboratory results from PubChem BioAssay (NCI).
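Following 48 hours of exposure in 96-well plates, responses at five concentrations were used to interpolate endpoints linearly. GI50 marks 50% less growth. The concentration for full growth arrest is given as TGI.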

Key:
Test in all cases: DTP human tumour cell line panel, 48 h
SN12C renal = system: SN12C renal
NCI-H460 lung = system: NCI-H460 lung
U251 CNS = system: U251 CNS
OVCAR-3 ovarian = system: OVCAR-3 ovarian
MALME-3M melanoma = system: MALME-3M melanoma
DU-145 prostate = system: DU-145 prostate
SK-OV-3 ovarian = system: SK-OV-3 ovarian
UACC-257 melanoma = system: UACC-257 melanoma
PC-3 prostate = system: PC-3 prostate
OVCAR-5 ovarian = system: OVCAR-5 ovarian
HT29 colon = system: HT29 colon
HCT-116 colon = system: HCT-116 colon
CCRF-CEM leukemia = system: CCRF-CEM leukemia
SW-620 colon = system: SW-620 colon
SF-295 CNS = system: SF-295 CNS
SF-268 CNS = system: SF-268 CNS
HCT-15 colon = system: HCT-15 colon
SK-MEL-28 melanoma = system: SK-MEL-28 melanoma
UACC-62 melanoma = system: UACC-62 melanoma
CAKI-1 renal = system: CAKI-1 renal
RXF 393 renal = system: RXF 393 renal
HOP-92 NSCLC = system: HOP-92 NSCLC
ACHN renal = system: ACHN renal
LOX IMVI melanoma = system: LOX IMVI melanoma
IGROV1 ovarian = system: IGROV1 ovarian
HS 578T breast = system: HS 578T breast
SK-MEL-5 melanoma = system: SK-MEL-5 melanoma
MDA-MB-231 breast = system: MDA-MB-231 breast
K-562 leukemia = system: K-562 leukemia

Compound: Cc1cn2c(/C=C3\C(=O)N(C)c4ccc(O)cc43)c(C)nc2s1
- GI50 (SN12C renal): 18.3 µM
- TGI (SN12C renal): > 100 µM
- GI50 (NCI-H460 lung): 3.54 µM
- TGI (NCI-H460 lung): 21.3 µM
- GI50 (U251 CNS): 5.64 µM
- TGI (U251 CNS): > 100 µM
- GI50 (OVCAR-3 ovarian): 2.65 µM
- TGI (OVCAR-3 ovarian): 17 µM
- GI50 (MALME-3M melanoma): 8.58 µM
- TGI (MALME-3M melanoma): > 100 µM
- GI50 (DU-145 prostate): 21 µM
- TGI (DU-145 prostate): > 100 µM
- GI50 (SK-OV-3 ovarian): 7.52 µM
- TGI (SK-OV-3 ovarian): 43.2 µM
- GI50 (UACC-257 melanoma): > 100 µM
- TGI (UACC-257 melanoma): > 100 µM
- GI50 (PC-3 prostate): 7.46 µM
- TGI (PC-3 prostate): > 100 µM
- GI50 (OVCAR-5 ovarian): 27.8 µM
- TGI (OVCAR-5 ovarian): > 100 µM
- GI50 (HT29 colon): 3.12 µM
- TGI (HT29 colon): 18.4 µM
- GI50 (HCT-116 colon): 4.04 µM
- TGI (HCT-116 colon): > 100 µM
- GI50 (CCRF-CEM leukemia): 6 µM
- TGI (CCRF-CEM leukemia): > 100 µM
- GI50 (SW-620 colon): 3.67 µM
- TGI (SW-620 colon): > 100 µM
- GI50 (SF-295 CNS): 2.82 µM
- TGI (SF-295 CNS): 23.6 µM
- GI50 (SF-268 CNS): 9.08 µM
- TGI (SF-268 CNS): > 100 µM
- GI50 (HCT-15 colon): 4.16 µM
- TGI (HCT-15 colon): > 100 µM
- GI50 (SK-MEL-28 melanoma): 5.15 µM
- TGI (SK-MEL-28 melanoma): > 100 µM
- GI50 (UACC-62 melanoma): 7.61 µM
- TGI (UACC-62 melanoma): > 100 µM
- GI50 (CAKI-1 renal): 5.13 µM
- TGI (CAKI-1 renal): 45.8 µM
- GI50 (RXF 393 renal): 36 µM
- TGI (RXF 393 renal): > 100 µM
- GI50 (HOP-92 NSCLC): 31.7 µM
- TGI (HOP-92 NSCLC): > 100 µM
- GI50 (ACHN renal): 13.3 µM
- TGI (ACHN renal): > 100 µM
- GI50 (LOX IMVI melanoma): 7.51 µM
- TGI (LOX IMVI melanoma): > 100 µM
- GI50 (IGROV1 ovarian): 4.26 µM
- TGI (IGROV1 ovarian): 28.7 µM
- GI50 (HS 578T breast): 5.64 µM
- TGI (HS 578T breast): 40.8 µM
- GI50 (SK-MEL-5 melanoma): 3.45 µM
- TGI (SK-MEL-5 melanoma): 57.6 µM
- GI50 (MDA-MB-231 breast): 7.89 µM
- TGI (MDA-MB-231 breast): > 100 µM
- GI50 (K-562 leukemia): 2.01 µM
- TGI (K-562 leukemia): 20.6 µM
